Key:
human CaSR = target: T1, human CaSR (Homo sapiens, UniProt P41180); test: Calcium receptor (CaSR) activation activity: calcium imaging in HEK 293 cells expressing human CaSR; format: cell-based; conditions: concentration giving 50% of the maximal activity; single values n = 1, others n = 2 or 3
T1 construct: expressed in transfected cells; host or cells: HEK 293 cells, transient transfection of a CMV-promoter expression vector
T1 sequence (P41180 20-1078): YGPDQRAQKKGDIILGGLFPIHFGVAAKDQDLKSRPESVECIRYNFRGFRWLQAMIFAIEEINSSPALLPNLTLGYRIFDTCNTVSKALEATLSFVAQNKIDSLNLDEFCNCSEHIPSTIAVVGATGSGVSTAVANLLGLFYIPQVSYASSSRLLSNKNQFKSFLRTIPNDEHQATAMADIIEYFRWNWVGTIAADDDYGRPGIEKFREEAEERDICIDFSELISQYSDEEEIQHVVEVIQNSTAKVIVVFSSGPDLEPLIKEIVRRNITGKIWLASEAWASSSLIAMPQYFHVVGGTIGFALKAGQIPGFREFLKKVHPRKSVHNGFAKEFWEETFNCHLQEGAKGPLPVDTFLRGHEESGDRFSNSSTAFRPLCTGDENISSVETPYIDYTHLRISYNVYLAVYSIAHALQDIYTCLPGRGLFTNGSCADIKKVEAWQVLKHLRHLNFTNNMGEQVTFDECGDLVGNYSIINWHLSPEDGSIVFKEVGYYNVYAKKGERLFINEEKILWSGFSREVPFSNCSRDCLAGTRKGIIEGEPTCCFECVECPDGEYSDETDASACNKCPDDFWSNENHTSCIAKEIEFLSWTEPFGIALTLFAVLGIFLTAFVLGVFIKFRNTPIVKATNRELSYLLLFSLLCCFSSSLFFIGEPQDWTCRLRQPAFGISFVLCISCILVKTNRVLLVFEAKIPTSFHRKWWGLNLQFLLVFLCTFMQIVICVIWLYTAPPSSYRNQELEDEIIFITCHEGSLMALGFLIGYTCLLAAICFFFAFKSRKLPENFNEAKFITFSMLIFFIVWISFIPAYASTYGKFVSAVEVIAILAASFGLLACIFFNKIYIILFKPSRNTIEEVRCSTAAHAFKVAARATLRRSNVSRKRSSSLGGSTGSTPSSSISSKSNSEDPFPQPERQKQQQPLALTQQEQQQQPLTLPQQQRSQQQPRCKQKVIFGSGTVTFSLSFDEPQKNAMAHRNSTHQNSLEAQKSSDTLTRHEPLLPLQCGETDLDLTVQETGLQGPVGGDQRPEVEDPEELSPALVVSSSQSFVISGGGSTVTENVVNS
Method: Calcium receptor (CaSR) activation activity of peptides obtained in Examples 2, 3, and 5-12 were measured as follows. A cDNA of human CaSR obtained in Example 1 of WO2007/055393A1 was inserted into an expression vector for an animal cell having a CMV promoter, and the cDNA in the vector was introduced into HEK 293 cells, which had multiplied to 70% of the maximal cell density, using FuGINE6 (Roche Ltd.). After culturing the cells for 4 to 48 hours, 0.6-1.0×10^5 of cells/well were disseminated into a 96-well plate, subsequently, the cells were cultured for one day, and then stained using Calcium 3 Assay Kit. The presence or absence of a calcium receptor activation activity of each peptide was confirmed by a calcium imaging method using FLEXSTATION (Molecular Devices Inc., instruction manual). Furthermore, the concentration of each peptide giving 50% of the maximal activity (EC50) was calculated using a dose characteristic curve.

human calcium receptor = target: T2, human calcium receptor (Homo sapiens, UniProt P41180); test: Calcium receptor activation activity: Ca ion concentration-dependent Cl ionic current in Xenopus laevis oocyte expression system; format: cell-based
T2 construct: expressed in transfected cells; host or cells: Xenopus laevis oocytes microinjected with cRNA; gene amplified by PCR from human kidney cDNA (Clontech)
T2 sequence (P41180 20-1078): T1 sequence (P41180 20-1078)
Method: To evaluate calcium receptor activation activity, a Ca ion concentration-dependent Cl ionic current measuring method using a Xenopus laevis oocyte expression system was used. If each activator is added to Xenopus laevis oocytes expressing the calcium receptor, intracellular Ca ions increase. Then, the Ca ion concentration-dependent Cl channel opens, and the intracellular current value changes as an ionic current. By measuring the change in this intracellular current value, the presence or absence of calcium receptor activation activity can be determined.
Specifically, the abdomen of Xenopus laevis was opened, and an egg batch was taken out and treated with a 1% collagenase solution at 20° C. for 2 hours to obtain individual oocytes. Into the oocytes, 50 nl of 1 μg/μl receptor cRNA or 50 nl of sterilized water per oocyte was introduced by using a micro glass capillary, and the oocytes were cultured at 18° C. for 2 or 3 days. For the culture, a solution obtained by adding 2 mM pyruvic acid, 10 U/ml of penicillin, and 10 μg/ml of streptomycin to the solution in Example 2 was used. After the culture, a test solution was added to the oocytes containing either the cRNA or sterilized water. Electrophysiological measurement was performed by using an amplifier, Geneclamp500 (Axon), and recording software, AxoScope 9.0 (Axon). The oocytes were voltage-clamped at −70 mV by the double electrode voltage clamp method, and the intracellular current was measured via the Ca ion concentration-dependent Cl ion channel. The maximum value of the intracellular current was considered as the response current value.
Calcium receptor activation activity of L-amino acids was evaluated by using the method described in Example 13. That is, oocytes containing either cRNA of the calcium receptor or sterilized water were prepared, and voltage-clamped at −70 mV by the double electrode voltage clamp method. To the voltage-clamped oocytes, alanine (10 mM), arginine (10 mM), asparagine (10 mM), aspartic acid (10 mM), cysteine (10 mM), glutamine (10 mM), glutamic acid (10 mM), glycine (10 mM), histidine (10 mM), isoleucine (10 mM), leucine (10 mM), lysine (10 mM), methionine (10 mM), phenylalanine (10 mM), proline (10 mM), serine (10 mM), threonine (10 mM), tryptophan (10 mM), tyrosine (10 mM), valine (10 mM), ornithine (10 mM), taurine (10 mM), or hydroxyproline (10 mM) was added, and Ca ion concentration-dependent Cl response current was measured. […] As for the aforementioned amino acids, the activation activity was reported in Proc. Natl. Acad. Sci. USA, 2000 Apr. 25, 97(9):4814-9.
Calcium receptor activation activity of D-cysteine was evaluated by using the method described in Example 13. That is, oocytes containing either cRNA of the calcium receptor or sterilized water were prepared, and voltage-clamped at −70 mV by the double electrode voltage clamp method. To the voltage-clamped oocytes, D-cysteine (10 mM), L-cysteine (10 mM), D-tryptophan (10 mM), or L-tryptophan (10 mM) was added, and Ca ion concentration-dependent Cl response current was measured.
Calcium receptor activation activity of peptides was evaluated by using the method described in Example 13. That is, oocytes containing either cRNA of the calcium receptor or sterilized water were prepared, and voltage-clamped at −70 mV by the double electrode voltage clamp method.
Calcium receptor activation activity of peptides was evaluated in the same manner as that of Example 17. Each of the peptides shown in Table 2 was added to voltage-clamped oocytes at 1000 μM, 300 μM, 100 μM, 30 μM, 10 μM, 3 μM, 1 μM, 0.3 μM, and 0.1 μM, and Ca ion concentration-dependent Cl response current was measured.

SMILES	EC50 (human CaSR)	Activity (lowest concentration for which current was detected) (human calcium receptor; added at 1000, 300, 100, 30, 10, 3, 1, 0.3 and 0.1 μM)	calcium receptor activation activity (Ca ion concentration-dependent Cl response current) (human calcium receptor; 50 μM peptide, oocytes voltage-clamped at −70 mV)
CC(C)[C@H](NC(=O)CC[C@H](N)C(=O)O)C(=O)NCC(=O)O [γ-Glu-Val-Gly]	0.023 to 0.055 µM	0.1 µM	
N[C@@H](CCC(=O)N[C@@H](CS)C(=O)NCC(=O)O)C(=O)O [γ-Glu-Cys-Gly, reference compound]			definitive calcium receptor activation activity
